Results from patent publication US12286437B2, “Cardiac sarcomere inhibitors” (Cytokinetics, Inc., priority 2021, dated 2025).

What was measured:
[1] = Rat single dose pharmacokinetics; assay type: in vivo, Sprague Dawley rats; conditions: male, Sprague Dawley, plasma, IV; for Vd: read-out: Vss
Method: Male Sprague Dawley rats were obtained from Zhejiang Vital River Laboratory Animal Technology Co., Ltd. The animals in IV group had free access to water and food. The animals in PO group were fasted overnight before dosing and provided with food 2 hours post dosing. The IV dose solution was prepared in 10% DMA/50% PG/40% HPβCD solution (40% w/v aqueous HPβCD) at a concentration of 1 mg/mL. The oral dosing suspension was prepared by suspending Test Article in 0.5% HPMC/0.1% Tween 80 in water at a concentration 0.2 mg/mL. Concentrations of IV and PO doses were measured at the end of the study. Pharmacokinetic parameters were calculated using the nominal dose values if the measured values were within 20% of the nominal values. Three rats were dosed IV via a bolus injection via caudal vein. Three rats per dose group were dosed by oral gavage. Blood samples were collected from the jugular vein cannula at predose, 5 (IV only), 15, 30 minutes, and 1, 2, 4, 6, and 24 hours post-dose. Blood volumes were replaced with an equal amount of sterile 0.9% saline. Blood samples were centrifuged and the collected plasma was stored at −80° C. for subsequent analysis. Plasma samples were analyzed for Test Article concentrations using a LC/MS/MS method. Briefly, a 50 μL aliquot of each plasma sample was mixed with 100 μL of acetonitrile that contained an internal standard. The mixture was vortexed and centrifuged. Ten (10) […] of the resulting solution was injected onto a reverse-phase C18 column and the resultant peaks detected on a LC/MS/MS equipped with a turbo ionspray ionization source. Sample concentrations below the limit of quantification (BLQ) were treated as zero for pharmacokinetic calculations. Pharmacokinetic parameters were estimated from individual animals using noncompartmental analysis of the concentration-time data (Phoenix WinNonLin software, version 64; Pharsight, Mountain View, CA). The elimination rate constant (k) was calculated as the absolute value of the slope of the linear regression of logarithm (log) of the concentration versus time for the last three data points of the concentration-time profiles. Apparent elimination half-life (t1/2) values were calculated as ln(2)/k. Area under the concentration-time curve (AUC) values were estimated using linear trapezoidal method. AUCt values were calculated from the dosing time to the last measurable concentration. AUC∞ values were calculated as the sum of the corresponding AUCt and the ratio of the last detectable concentration divided by k (AUCt-∞). Plasma clearance (CL) was calculated from Dose/AUC∞. Mean resident time (MRT) was estimated by moment analysis. Volume of distribution at steady state (Vss) was calculated from MRT∞×CL. Maximum concentration (Cmax) and time to reach Cmax (tmax) were recorded as observed. Bioavailability was calculated from the ratio of dose normalized AUC∞,po of individual rats/mean dAUC∞,iv×100% where dAUC was the dose normalized AUC value. Compounds tested were prepared in accordance with the synthetic procedures described herein.

[2] = Monkey cassette dosing pharmacokinetics; assay type: in vivo; conditions: IV; for clearance / Vd: male, plasma; for Vd: read-out: Vss
CYP2B6 = target: T1, CYP2B6 (Homo sapiens, UniProt P20813); assay: Time-dependent inhibition of CYP2B6 in human liver microsomes; assay type: in vitro ADME; conditions: for (% Activity NADPH T0)/(% Activity NADPH T30): fold change; for activity at 30 min, 25 µM / activity at 0 min, 25 µM / activity at 30 min, 50 µM / activity at 0 min, 50 µM: pooled human liver microsomes, human liver microsomes; for activity at 30 min, 25 µM / activity at 30 min, 50 µM: after 30 minutes incubation, read-out: % Activity NADPH T30; for activity at 0 min, 25 µM / activity at 0 min, 50 µM: time zero, read-out: % Activity NADPH T0
T1 construct: Pooled human microsomes and selective CYP probe substrates were used; from tissue; host or cells: pooled human liver microsomes
T1 sequence (P20813 1-491): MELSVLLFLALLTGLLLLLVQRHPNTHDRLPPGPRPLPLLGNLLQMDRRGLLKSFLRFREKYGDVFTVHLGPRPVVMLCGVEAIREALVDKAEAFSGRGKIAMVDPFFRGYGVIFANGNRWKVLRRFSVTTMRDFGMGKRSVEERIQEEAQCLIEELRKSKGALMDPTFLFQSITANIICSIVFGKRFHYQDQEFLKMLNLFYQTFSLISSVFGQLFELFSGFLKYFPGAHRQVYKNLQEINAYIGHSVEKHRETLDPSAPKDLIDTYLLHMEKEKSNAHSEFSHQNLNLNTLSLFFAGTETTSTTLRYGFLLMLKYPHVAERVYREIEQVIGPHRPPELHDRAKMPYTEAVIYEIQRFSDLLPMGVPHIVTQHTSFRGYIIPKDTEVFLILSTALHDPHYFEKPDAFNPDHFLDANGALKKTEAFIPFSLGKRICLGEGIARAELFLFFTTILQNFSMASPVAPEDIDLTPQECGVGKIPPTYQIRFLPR
Method: An assessment of the time-dependent Inhibitory Potential of the test compounds against Principal Human Cytochrome P450 Isozymes using Human Liver Microsomes was also carried out using standard methods (Grimm et al, Drug Metab. Dispos., July; 37(7):1355-70. doi: 10.1124/dmd.109.026716, 2009). Pooled human microsomes and selective CYP probe substrates were used for in vitro assessment of test compounds at 25 and 50 μM as time-dependent inhibitors of […] human hepatic cytochrome P450 isozymes (CYP1A2, 2B6, 2C9, 2C19, 2D6, and 3A4). LC-MS/MS was used to quantify metabolite formation. The inhibition of each P450 enzyme in human liver microsomes was measured as the percentage decrease in the activity of marker metabolite formation as measured by LC-MS/MS compared to non-inhibited controls (=100% activity) at time zero and after 30 minutes incubation. The occurrence of any time dependent inhibition was then expressed as the fold change in enzyme activity at time zero relative to the activity after 30 minutes incubation.

Which results are given for `C[C@H]1CC[C@H](N2CC(=O)N(Cc3ccc(F)c(F)c3)C3(CN(C(N)=O)C3)C2=O)CC1` [Compound 5, 5-(3,4-difluorobenzyl)-8-((1r,4r)-4-methylcyclohexyl)-6,9-dioxo-2,5,8-triazaspiro[3.5]nonane-2-carboxamide]?
clearance [1]: 71.1 mL/min/kg; half-life [1]: 3.04 h; Vd [1]: 13.7 L/kg; t l/2 [2]: 8.2 h; clearance [2]: 19 mL/min/kg; Vd [2]: 10.2 L/kg; (% Activity NADPH T0)/(% Activity NADPH T30) (CYP2B6; CYP2B6, 25 μM): 1.0; (% Activity NADPH T0)/(% Activity NADPH T30) (CYP2B6; CYP2B6, 50 μM): 1.1; activity at 30 min, 25 µM (CYP2B6; CYP2B6, 25 μM): 78%; activity at 0 min, 25 µM (CYP2B6; CYP2B6, 25 μM): 79%; activity at 30 min, 50 µM (CYP2B6; CYP2B6, 50 μM): 76%; activity at 0 min, 50 µM (CYP2B6; CYP2B6, 50 μM): 83%

Which results are given for `CC(C)N1CC(=O)N(Cc2ccc(Cl)c(F)c2)C2(CN(c3cccnn3)C2)C1=O` [Compound 8, 5-(4-chloro-3-fluorobenzyl)-8-isopropyl-2-(pyridazin-3-yl)-2,5,8-triazaspiro[3.5]nonane-6,9-dione]?
clearance [1]: 79.9 mL/min/kg; half-life [1]: 1.2 h; Vd [1]: 5.22 L/kg; t l/2 [2]: 3.72 h; clearance [2]: 20.2 mL/min/kg; Vd [2]: 4.76 L/kg; (% Activity NADPH T0)/(% Activity NADPH T30) (CYP2B6; CYP2B6, 25 μM): 0.9; (% Activity NADPH T0)/(% Activity NADPH T30) (CYP2B6; CYP2B6, 50 μM): 0.9; activity at 30 min, 25 µM (CYP2B6; CYP2B6, 25 μM): 97%; activity at 0 min, 25 µM (CYP2B6; CYP2B6, 25 μM): 83%; activity at 30 min, 50 µM (CYP2B6; CYP2B6, 50 μM): 100%; activity at 0 min, 50 µM (CYP2B6; CYP2B6, 50 μM): 88%

With `C[C@H]1CC[C@H](N2CC(=O)N(Cc3ccc(F)c(Cl)c3)C3(CN(C(N)=O)C3)C2=O)CC1` [Compound 7, 5-(3-chloro-4-fluorobenzyl)-8-((1r,4r)-4-methylcyclohexyl)-6,9-dioxo-2,5,8-triazaspiro[3.5]nonane-2-carboxamide] as the molecule, how does the clearance [1] read?
The clearance was 61.9 mL/min/kg.

And the half-life [1]?
Its half-life is 2.1 h.

What about the Vd [1] of the same molecule?
The Vd was 12.6 L/kg.

What about the “t l/2” value [2] of the same molecule?
The value was 12.5 h.

What about the clearance [2] of the same molecule?
The clearance was 10.2 mL/min/kg.

And the Vd [2]?
Its Vd is 9.12 L/kg.

And the “(% Activity NADPH T0)/(% Activity NADPH T30)” value (CYP2B6; CYP2B6, 25 μM)?
Its value is 0.9.

What about the “(% Activity NADPH T0)/(% Activity NADPH T30)” value (CYP2B6; CYP2B6, 50 μM) of the same molecule?
Its value is 1.1.

What about the activity at 30 min, 25 µM (CYP2B6; CYP2B6, 25 μM) of the same molecule?
The activity at 30 min, 25 µM was 74%.

And the activity at 0 min, 25 µM (CYP2B6; CYP2B6, 25 μM)?
Its activity at 0 min, 25 µM is 70%.

What about the activity at 30 min, 50 µM (CYP2B6; CYP2B6, 50 μM) of the same molecule?
Its activity at 30 min, 50 µM is 70%.

What about the activity at 0 min, 50 µM (CYP2B6; CYP2B6, 50 μM) of the same molecule?
The activity at 0 min, 50 µM was 78%.

With `Cc1cc(CN2C(=O)CN([C@H]3CC[C@H](C)CC3)C(=O)C23CN(C(N)=O)C3)ccc1F` [Compound 6, 5-(4-fluoro-3-methylbenzyl)-8-((1r,4r)-4-methylcyclohexyl)-6,9-dioxo-2,5,8-triazaspiro[3.5]nonane-2-carboxamide] as the molecule, how does the clearance [1] read?
Its clearance is 76.6 mL/min/kg.

And the half-life [1]?
The half-life was 2 h.

What about the Vd [1] of the same molecule?
The Vd was 10.1 L/kg.

And the “t l/2” value [2]?
The value was 8.07 h.

And the clearance [2]?
Its clearance is 12.3 mL/min/kg.

What about the Vd [2] of the same molecule?
Its Vd is 6.29 L/kg.

And the “(% Activity NADPH T0)/(% Activity NADPH T30)” value (CYP2B6; CYP2B6, 25 μM)?
The value was 1.1.

What about the “(% Activity NADPH T0)/(% Activity NADPH T30)” value (CYP2B6; CYP2B6, 50 μM) of the same molecule?
The value was 1.1.

What about the activity at 30 min, 25 µM (CYP2B6; CYP2B6, 25 μM) of the same molecule?
Its activity at 30 min, 25 µM is 83%.

What about the activity at 0 min, 25 µM (CYP2B6; CYP2B6, 25 μM) of the same molecule?
The activity at 0 min, 25 µM was 95%.

And the activity at 30 min, 50 µM (CYP2B6; CYP2B6, 50 μM)?
The activity at 30 min, 50 µM was 77%.

And the activity at 0 min, 50 µM (CYP2B6; CYP2B6, 50 μM)?
Its activity at 0 min, 50 µM is 87%.

What does the source list for `CC(C)N1CC(=O)N(Cc2ccc(C(F)(F)F)cc2)C2(CN(c3cccnn3)C2)C1=O` [Compound 13, 8-isopropyl-2-(pyridazin-3-yl)-5-(4-(trifluoromethyl)benzyl)-2,5,8-triazaspiro[3.5]nonane-6,9-dione]?
clearance [1]: 38.9 mL/min/kg; half-life [1]: 0.95 h; Vd [1]: 2.17 L/kg; t l/2 [2]: 1.83 h; clearance [2]: 21.4 mL/min/kg; Vd [2]: 3.15 L/kg; (% Activity NADPH T0)/(% Activity NADPH T30) (CYP2B6; CYP2B6, 25 μM): 0.9; (% Activity NADPH T0)/(% Activity NADPH T30) (CYP2B6; CYP2B6, 50 μM): 1.1; activity at 30 min, 25 µM (CYP2B6; CYP2B6, 25 μM): 116%; activity at 0 min, 25 µM (CYP2B6; CYP2B6, 25 μM): 102%; activity at 30 min, 50 µM (CYP2B6; CYP2B6, 50 μM): 81%; activity at 0 min, 50 µM (CYP2B6; CYP2B6, 50 μM): 90%

Which clearance [1] does the source give for `C[C@H]1CC[C@H](N2CC(=O)N(Cc3ccc(Cl)cc3)C3(CN(C(N)=O)C3)C2=O)CC1` [Compound 18, 5-(4-chlorobenzyl)-8-((1r,4r)-4-methylcyclohexyl)-6,9-dioxo-2,5,8-triazaspiro[3.5]nonane-2-carboxamide] here?
The clearance was 63.6 mL/min/kg.

And the half-life [1]?
The half-life was 2.15 h.

And the Vd [1]?
Its Vd is 9.48 L/kg.

And the “t l/2” value [2]?
Its value is 8.04 h.

And the clearance [2]?
Its clearance is 12.5 mL/min/kg.

What about the Vd [2] of the same molecule?
Its Vd is 10.2 L/kg.

What about the “(% Activity NADPH T0)/(% Activity NADPH T30)” value (CYP2B6; CYP2B6, 25 μM) of the same molecule?
The value was 0.8.

What about the “(% Activity NADPH T0)/(% Activity NADPH T30)” value (CYP2B6; CYP2B6, 50 μM) of the same molecule?
The value was 0.9.

What about the activity at 30 min, 25 µM (CYP2B6; CYP2B6, 25 μM) of the same molecule?
Its activity at 30 min, 25 µM is 103%.

And the activity at 0 min, 25 µM (CYP2B6; CYP2B6, 25 μM)?
Its activity at 0 min, 25 µM is 80%.

And the activity at 30 min, 50 µM (CYP2B6; CYP2B6, 50 μM)?
Its activity at 30 min, 50 µM is 83%.

What about the activity at 0 min, 50 µM (CYP2B6; CYP2B6, 50 μM) of the same molecule?
Its activity at 0 min, 50 µM is 76%.

With `C[C@H]1CC[C@H](N2CC(=O)N(Cc3ccc(F)c(F)c3)C3(CN(C=O)C3)C2=O)CC1` [Compound 4, 5-(3,4-difluorobenzyl)-8-((1r,4r)-4-methylcyclohexyl)-6,9-dioxo-2,5,8-triazaspiro[3.5]nonane-2-carbaldehyde] as the molecule, how does the “t l/2” value [2] read?
The value was 8.69 h.

And the “(% Activity NADPH T0)/(% Activity NADPH T30)” value (CYP2B6; CYP2B6, 25 μM)?
Its value is 1.1.

And the “(% Activity NADPH T0)/(% Activity NADPH T30)” value (CYP2B6; CYP2B6, 50 μM)?
Its value is 1.0.
